Patent publication US20140073801A1, “PYRROLIDINE DERIVATIVES AS SELECTIVE GLYCOSIDASE INHIBITORS AND USES THEREOF” (Summit Corporation Plc, priority 2011, published 2014)

Legend:
Type in all cases: biochemical
[1] = test system: human β-hexosaminidase [human placenta] (HexA/B); test: Determination of IC50 values for inhibition of human β-hexosaminidase; settings: ratio
Method: (§1) Inhibitors identified from the screen described in Example 1 were evaluated for IC50 against human β-hexosaminidase [human placenta, Sigma-Aldrich] using a range of inhibitor concentrations from 300 μM to 0.003 μM or 100 μM to 0.001 μM and the following reaction conditions:
(§2) Reactions were carried out at room temperature for thirty minutes and then quenched through the addition of 150 μl 0.5M Na2CO3. Fluorescence readings were taken at excitation wavelength 360 nm and emission wavelength 450 nm. IC50 values were calculated using XLFit 4. The selectivity ratio for inhibition of human O-GlcNAcase over human β-hexosaminidase is defined here as:
(§3) IC50(human β-hexosaminidase)/IC50(Human OGA)

[2] = molecular target: T1, human β-hexosaminidase [human placenta] (HexA/B); test: as above; settings: human β-hexosaminidase, human placenta; room temperature, thirty minutes
T1 construct: other: human β-hexosaminidase, human placenta; room temperature, thirty minutes
Method: as §1, §2, §3

[3] = molecular target: T2, human OGA (Homo sapiens, UniProt O60502); test: Determination of IC50 values for inhibition of human OGA
T2 construct: made in house
T2 sequence (O60502 1-916): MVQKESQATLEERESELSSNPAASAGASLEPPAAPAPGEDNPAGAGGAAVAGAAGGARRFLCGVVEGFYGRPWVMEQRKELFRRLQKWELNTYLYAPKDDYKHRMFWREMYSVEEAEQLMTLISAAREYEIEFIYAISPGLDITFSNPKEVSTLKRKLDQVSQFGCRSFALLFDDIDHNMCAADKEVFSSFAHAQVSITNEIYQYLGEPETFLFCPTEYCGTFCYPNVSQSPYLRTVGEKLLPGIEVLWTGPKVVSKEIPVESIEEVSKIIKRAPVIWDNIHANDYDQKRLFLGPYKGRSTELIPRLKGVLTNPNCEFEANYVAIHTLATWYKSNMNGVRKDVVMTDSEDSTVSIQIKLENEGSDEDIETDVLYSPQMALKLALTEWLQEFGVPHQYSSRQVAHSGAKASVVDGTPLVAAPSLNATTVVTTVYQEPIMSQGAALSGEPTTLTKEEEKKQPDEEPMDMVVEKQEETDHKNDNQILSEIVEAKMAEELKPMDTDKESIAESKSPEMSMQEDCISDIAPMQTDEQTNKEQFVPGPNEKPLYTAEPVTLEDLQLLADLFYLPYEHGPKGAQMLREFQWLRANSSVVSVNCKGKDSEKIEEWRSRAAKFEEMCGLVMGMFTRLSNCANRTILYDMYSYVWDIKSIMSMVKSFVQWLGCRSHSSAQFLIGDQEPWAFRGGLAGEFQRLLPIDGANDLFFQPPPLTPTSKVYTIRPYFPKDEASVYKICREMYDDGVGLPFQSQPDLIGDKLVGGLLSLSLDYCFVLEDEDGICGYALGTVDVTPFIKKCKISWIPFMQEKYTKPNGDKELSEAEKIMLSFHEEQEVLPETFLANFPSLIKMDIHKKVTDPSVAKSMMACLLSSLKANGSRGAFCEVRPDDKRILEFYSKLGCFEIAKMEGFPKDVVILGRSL
Method: Inhibitors identified from the screen described in Example 1 were evaluated for IC50 using a procedure adapted from Biochem. J. 2009, 420, 221-227. IC50 determination was carried out using a range of inhibitor concentrations from 300 μM to 0.003 μM or 100 μM to 0.001 μM. IC50 values were calculated using XLFit 4.

| Compound | Selectivity: IC50(human β-hexosaminidase)/IC50(Human OGA) [1] | IC50 [2] [µM] | IC50 [3] [µM] |
| --- | --- | --- | --- |
| CCCCCCN1[C@@H](CO)[C@H](O)[C@H](O)[C@@H]1CC(=O)NC [Compound A024, 2-((2S,3R,4S,5S)-1-hexyl-3,4-dihydroxy-5-(hydroxymethyl)pyrrolidin-2-yl)-N-methylacetamide] | 0.31 | 44 | 143 |
| CNC(=O)C[C@@H]1[C@H](O)[C@H](O)[C@@H](CO)N1CCCNS(=O)(=O)c1ccc(-c2ccccc2)cc1 [Compound A072, 2-((2R,3S,4R,5R)-1-(3-([1,1′-biphenyl]-4-ylsulfonamido)propyl)-3,4-dihydroxy-5-(hydroxymethyl)pyrrolidin-2-yl)-N-methylacetamide] | >150000 | > 300 | 0.002 |
| CCCCCCCCCN1[C@H](CC(=O)NC(C)C)[C@H](O)[C@H](O)[C@H]1CO [Compound A014, 2-((2R,3S,4R,5R)-3,4-dihydroxy-5-(hydroxymethyl)-1-nonylpyrrolidin-2-yl)-N-isopropylacetamide] | >81 | > 300 | 3.66 |
| CCCCCCCCCN1[C@H](CC(=O)NC)[C@H](O)[C@H](O)[C@H]1CO [Compound A011, 2-((2R,3S,4R,5R)-3,4-dihydroxy-5-(hydroxymethyl)-1-nonylpyrrolidin-2-yl)-N-methylacetamide] | >9174 | > 300 | 0.033 |
| CNC(=O)C[C@@H]1[C@H](O)[C@H](O)[C@@H](CO)N1CCCCCCO [Compound A040, 2-((2R,3S,4R,5R)-3,4-dihydroxy-1-(6-hydroxyhexyl)-5-(hydroxymethyl)pyrrolidin-2-yl)-N-methylacetamide] | 3355 | 151 | 0.045 |
| CNC(=O)C[C@@H]1[C@H](O)[C@H](O)[C@@H](CO)N1CCCCCNS(=O)(=O)c1ccc(Oc2ccccc2)cc1 [Compound A067, 2-((2R,3S,4R,5R)-3,4-dihydroxy-5-(hydroxymethyl)-1-(5-(4-phenoxyphenylsulfonamido)pentyl)pyrrolidin-2-yl)-N-methylacetamide] | >5000 | 15 | < 0.003 |
| CC(C)CNC(=O)C[C@@H]1[C@H](O)[C@H](O)[C@@H](CO)N1CCCc1ccccc1 [Compound A026, 2-((2R,3S,4R,5R)-3,4-dihydroxy-5-(hydroxymethyl)-1-(3-phenylpropyl)pyrrolidin-2-yl)-N-isobutylacetamide] | >68.34 | > 300 | 4.39 |
| CNC(=O)C[C@@H]1[C@H](O)[C@H](O)[C@@H](CO)N1CCCCc1ccccc1 [Compound A020, 2-((2R,3S,4R,5R)-3,4-dihydroxy-5-(hydroxymethyl)-1-(4-phenylbutyl)pyrrolidin-2-yl)-N-methylacetamide] | >13215 | > 300 | 0.023 |
| O=C(C[C@@H]1[C@H](O)[C@H](O)[C@@H](CO)N1CCCc1ccccc1)NCCO [Compound A029, 2-((2R,3S,4R,5R)-3,4-dihydroxy-5-(hydroxymethyl)-1-(3-phenylpropyl)pyrrolidin-2-yl)-N-(2-hydroxyethyl)acetamide] | >2.38 | > 300 | 125 |
| CCCCCCN1[C@H](CC(=O)NCC2CCCCC2)[C@H](O)[C@H](O)[C@H]1CO [Compound A031, N-(cyclohexylmethyl)-2-((2R,3S,4R,5R)-1-hexyl-3,4-dihydroxy-5-(hydroxymethyl)pyrrolidin-2-yl)acetamide] | >3.97 | > 300 | 75.5 |
| CCCCCCN1[C@H](CC(=O)NC)[C@H](O)[C@@H](O)[C@@H]1CO [Compound A032, 2-((2R,3S,4S,5S)-1-hexyl-3,4-dihydroxy-5-(hydroxymethyl)pyrrolidin-2-yl)-N-methylacetamide] | >49.4 | > 300 | 6.07 |

Next, values leading:

| Selectivity: IC50(human β-hexosaminidase)/IC50(Human OGA) [1] | IC50 [2] [µM] | IC50 [3] [µM] | Compound |
| --- | --- | --- | --- |
| >555 | > 300 | 0.537 | CCCNC(=O)C[C@H]1N[C@H](CO)[C@@H](O)[C@H]1O [Compound A004, 2-((2R,3S,4R,5R)-3,4-dihydroxy-5-(hydroxymethyl)pyrrolidin-2-yl)-N-propylacetamide] |
| >12.6 | > 300 | 23.8 | O=C(C[C@H]1N[C@H](CO)[C@@H](O)[C@H]1O)NC1CC1 [Compound A048, N-cyclopropyl-2-((2R,3S,4R,5R)-3,4-dihydroxy-5-(hydroxymethyl)pyrrolidin-2-yl)acetamide] |
| >585 | > 300 | 0.512 | CCNC(=O)C[C@@H]1[C@@H](O)[C@H](O)[C@@H](CO)N1CCOc1ccc(Cl)cc1Cl [Compound A062, 2-((2R,3R,4R,5R)-1-(2-(2,4-dichlorophenoxy)ethyl)-3,4-dihydroxy-5-(hydroxymethyl)pyrrolidin-2-yl)-N-ethylacetamide] |
| >3.16 | > 300 | 94.9 | CCCCCCN1[C@H](CO)[C@H](O)[C@@H](O)[C@H]1CC(=O)NCCO [Compound A030, 2-((2R,3S,4S,5R)-1-hexyl-3,4-dihydroxy-5-(hydroxymethyl)pyrrolidin-2-yl)-N-(2-hydroxyethyl)acetamide] |
| >4329 | > 300 | 0.0693 | CCNC(=O)C[C@@H]1[C@@H](O)[C@H](O)[C@@H](CO)N1CCCc1ccccc1 [Compound A061, 2-((2R,3R,4R,5R)-3,4-dihydroxy-5-(hydroxymethyl)-1-(3-phenylpropyl)pyrrolidin-2-yl)-N-ethylacetamide] |
| 4.66 | 0.13 | 0.0279 | CNC(=O)C[C@H]1N[C@H](CO)[C@@H](O)[C@@H]1O [Compound A044, 2-((2R,3R,4R,5R)-3,4-dihydroxy-5-(hydroxymethyl)pyrrolidin-2-yl)-N-methylacetamide] |
| >10.43 | > 300 | 28.8 | CCNC(=O)C[C@@H]1N[C@H](CO)[C@@H](O)[C@@H]1O [Compound A051, 2-((2S,3R,4R,5R)-3,4-dihydroxy-5-(hydroxymethyl)pyrrolidin-2-yl)-N-ethylacetamide] |
| 0.02 | 0.0107 | 0.58 | CCCCCCN1[C@H](CC(=O)NC)[C@@H](O)[C@H](O)[C@@H]1CO [Compound A056, 2-((2R,3R,4R,5S)-1-hexyl-3,4-dihydroxy-5-(hydroxymethyl)pyrrolidin-2-yl)-N-methylacetamide] |
| >1.34 | > 300 | 224 | CCNC(=O)C[C@@H]1[C@@H](O)[C@H](O)[C@@H](CO)N1C(=O)CCc1ccccc1 [Compound A069, 2-((2R,3R,4R,5R)-3,4-dihydroxy-5-(hydroxymethyl)-1-(3-phenylpropanoyl)pyrrolidin-2-yl)-N-ethylacetamide] |
| 4.27 | 0.0299 | 0.007 | CNC(=O)[C@H]1N[C@H](CO)[C@@H](O)[C@@H]1O [Compound A059, (2S,3R,4R,5R)-3,4-dihydroxy-5-(hydroxymethyl)-N-methylpyrrolidine-2-carboxamide] |
| >2 | > 300 | 130 | CC(C)NC(=O)C[C@H]1N[C@H](CO)[C@@H](O)[C@H]1O [Compound A013, 2-((2R,3S,4R,5R)-3,4-dihydroxy-5-(hydroxymethyl)pyrrolidin-2-yl)-N-isopropylacetamide] |
